One experiment concerns the target human CB2 receptors (Homo sapiens (Human), UniProt P34972). As to the kind of experiment: human CB2 radioligand binding assay ([3H]CP 55,940 competition). Here is the method:
(§1) The CB1 and CB2 radioligand binding assays described herein are utilized to ascertain the affinity of compounds of the present application for binding to CB2 relative to CB1 receptors.
HEK293 cells stably expressing human CB2 receptors were grown until a confluent monolayer was formed. Briefly, the cells were harvested and homogenized in TE buffer (50 mM Tris-HCl, 1 mM MgCl2, and 1 mM EDTA) using a polytron for 2×10 second bursts in the presence of protease inhibitors, followed by centrifugation at 45,000×g for 20 minutes. The final membrane pellet was re-homogenized in storage buffer (50 mM Tris-HCl, 1 mM MgCl2, and 1 mM EDTA and 10% sucrose) and frozen at −78° C. until used. Saturation binding reactions were initiated by the addition of membrane preparation (protein concentration of 5 μg/well for human CB2) into wells of a deep well plate containing [^3H]CP 55,940 (120 Ci/mmol, a nonselective CB agonist commercially available from Tocris) in assay buffer (50 mM Tris, 2.5 mM EDTA, 5 mM MgCl2, and 0.5 mg/mL fatty acid free BSA, pH 7.4). After 90 min incubation at 30° C., binding reaction was terminated by the addition of 300 μL/well of cold assay buffer followed by rapid vacuum filtration through a UniFilter-96 GF/C filter plates (pre-soaked in 1 mg/mL BSA for 2 hours). The bound activity was counted in a TopCount using Microscint-20. Saturation experiments were conducted with twelve concentrations of [^3H]CP 55,940 ranging from 0.01 to 8 nM. Competition experiments were conducted with 0.5 nM [^3H]CP 55,940 and five concentrations (0.01 nM to 10 μM) of displacing ligands. The addition of 10 μM unlabeled CP 55,940 (Tocris, Ellisville, Mo.) was used to assess nonspecific binding.

Another experiment has as its target rat CB2 receptors (Rattus norvegicus (Rat), UniProt Q9QZN9). As to the kind of experiment: rat CB2 radioligand binding assay ([3H]CP 55,940 competition). The note with it: HEK293 membranes, 0.5 nM [3H]CP 55,940. Here is the method:
as §1
HEK293 cells stably expressing rat CB2 receptors were grown until a confluent monolayer was formed. Briefly, the cells were harvested and homogenized in TE buffer (50 mM Tris-HCl, 1 mM MgCl2, and 1 mM EDTA) using a polytron for 2×10 second bursts in the presence of protease inhibitors, followed by centrifugation at 45,000×g for 20 minutes. The final membrane pellet was re-homogenized in storage buffer (50 mM Tris-HCl, 1 mM MgCl2, and 1 mM EDTA and 10% sucrose) and frozen at −78° C. until used. Saturation binding reactions were initiated by the addition of membrane preparation (protein concentration of 20 μg/well for rat CB2) into wells of a deep well plate containing [^3H]CP 55,940 (120 Ci/mmol, a nonselective CB agonist commercially available from Tocris) in assay buffer (50 mM Tris, 2.5 mM EDTA, 5 mM MgCl2, and 0.5 mg/mL fatty acid free BSA, pH 7.4). After 45 min incubation at 30° C., binding reaction was terminated by the addition of 300 μl/well of cold assay buffer followed by rapid vacuum filtration through a UniFilter-96 GF/C filter plates (pre-soaked in 1 mg/mL BSA for 2 hours). The bound activity was counted in a TopCount using Microscint-20. Saturation experiments were conducted with twelve concentrations of [^3H]CP 55,940 ranging from 0.01 to 8 nM. Competition experiments were conducted with 0.5 nM [^3H]CP 55,940 and five concentrations of displacing ligands selected from the range of 0.01 nM to 10 μM. The addition of 10 μM unlabeled CP 55,940 (Tocris, Ellisville, Mo.) was used to assess nonspecific binding.

For experiment [1], the target named is rat CB1 receptors (HEK cells) (Rattus norvegicus (Rat), UniProt P20272). As to the kind of experiment: rat CB1 cyclase functional assay (HitHunter cAMP). Type of experiment: cell-based. Here is the method: The cyclase functional assays were performed using the HitHunter™ cAMP assay kit from DiscoveRx (Fremont, Calif.) according to vendor's protocol. Briefly, HEK cells expressing CB2 or CB1 receptors (rat or human) were detached using cell dissociation buffer (Invitrogen, Carlsbad, Calif.), dispersed and placed in suspension at 10,000 cells per well in 96 well plates prior to the assay. Cell suspensions were incubated at 37° C. for 20 min with variable concentrations of test ligands and or 10 μM CP 55,940-positive control in the presence of a fixed concentration of forskolin (18 μM for rat CB2 and 37 μM for rat CB1) in Dulbescco's phosphate-buffered saline (Invitrogen, Carlsbad, Calif.) supplemented with bovine serum albumin (0.01% final concentration). The reactions were terminated by the addition of lysis buffer and the luminescence was detected following the procedure according to the manufacturer's instructions. EC50 values were calculated using sigmoidal dose-response curve fitting from Prism (GraphPad).

[2] abbreviates: HEK293 membranes, 0.5 nM [3H]CP 55,940, read-out: human CB2 (Ki).

For 16 compounds, Ki and EC50 results are on record in patent publication US8846730B2, “Compounds as cannabinoid receptor ligands” (priority 2008, dated 2014).

Read-outs that look alike come from different tables or passages of the source.

Sequence of human CB2 receptors (P34972 whole entry): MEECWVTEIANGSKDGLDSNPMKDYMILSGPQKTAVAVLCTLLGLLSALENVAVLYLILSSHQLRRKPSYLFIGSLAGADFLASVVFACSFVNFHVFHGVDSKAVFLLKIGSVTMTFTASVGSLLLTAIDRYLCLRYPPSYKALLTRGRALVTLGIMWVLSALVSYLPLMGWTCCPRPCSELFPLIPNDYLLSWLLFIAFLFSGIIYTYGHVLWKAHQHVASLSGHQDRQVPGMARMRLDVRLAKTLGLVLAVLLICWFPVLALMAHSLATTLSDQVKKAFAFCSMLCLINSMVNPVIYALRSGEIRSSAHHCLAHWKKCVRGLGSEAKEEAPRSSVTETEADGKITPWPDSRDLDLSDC
Sequence of rat CB1 receptors (HEK cells) (P20272 whole entry): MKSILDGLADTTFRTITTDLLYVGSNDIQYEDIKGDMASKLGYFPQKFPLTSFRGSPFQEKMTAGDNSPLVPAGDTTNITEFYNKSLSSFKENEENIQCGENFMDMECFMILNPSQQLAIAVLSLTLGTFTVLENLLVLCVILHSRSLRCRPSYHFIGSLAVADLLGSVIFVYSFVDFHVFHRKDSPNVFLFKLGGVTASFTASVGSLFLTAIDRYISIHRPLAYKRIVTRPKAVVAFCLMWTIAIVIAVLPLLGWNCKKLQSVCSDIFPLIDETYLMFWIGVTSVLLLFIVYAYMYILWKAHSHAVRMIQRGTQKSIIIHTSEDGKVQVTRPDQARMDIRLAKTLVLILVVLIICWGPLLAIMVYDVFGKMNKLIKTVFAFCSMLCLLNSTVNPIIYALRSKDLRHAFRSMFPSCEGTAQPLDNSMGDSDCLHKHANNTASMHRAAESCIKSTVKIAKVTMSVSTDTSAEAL

For the compound `CN1CCC[C@H]1CNc1ccc(C(F)(F)F)cc1C(=O)/N=c1\sc(C(C)(C)C)cn1C[C@H]1CCCO1` [Example 55, N-[(2Z)-5-tert-butyl-3-[(2R)-tetrahydrofuran-2-ylmethyl]-1,3-thiazol-2(3H)-ylidene]-2-({[(2S)-1-methylpyrrolidin-2-yl]methyl}amino)-5-(trifluoromethyl)benzamide], the Ki (in general, the equilibrium dissociation constant of an inhibitor or competing ligand from its target) turned out to be 36 nM on human CB2 receptors (setting [2]) and 8.1 nM at rat CB2 receptors.

For the compound `CCN(CC)Oc1ccc(C(F)(F)F)cc1C(=O)/N=c1\sc(C(C)(C)C)cn1C[C@H]1CCCO1` [Example 78, N-[(2Z)-5-tert-butyl-3-[(2R)-tetrahydrofuran-2-ylmethyl]-1,3-thiazol-2(3H)-ylidene]-2-[(diethylamino)oxy]-5-(trifluoromethyl)benzamide], the results for the Ki on human CB2 receptors (setting [2]) and on rat CB2 receptors were 22 nM and 4.6 nM, respectively.

Regarding `CC(=NOc1ccc(C(F)(F)F)cc1C(=O)/N=c1\sc(C(C)(C)C)cn1C[C@H]1CCCO1)C(F)(F)F` [Example 80, N-[(2Z)-5-tert-butyl-3-[(2R)-tetrahydrofuran-2-ylmethyl]-1,3-thiazol-2(3H)-ylidene]-5-(trifluoromethyl)-2-({[2,2,2-trifluoro-1-methylethylidene]amino}oxy)benzamide], in experiment [1], the EC50 (commonly the concentration giving half of the maximal effect) was over 27000 nM. The Ki on human CB2 receptors (setting [2]) was determined as 4.4 nM; at rat CB2 receptors, 4.8 nM.

For the compound `CN1CCC[C@H]1COc1ccc(C(F)(F)F)cc1C(=O)/N=c1\scc(C(C)(C)C)n1C[C@H]1CCCO1` [Example 57, N-[(2Z)-4-tert-butyl-3-[(2R)-tetrahydrofuran-2-ylmethyl]-1,3-thiazol-2(3H)-ylidene]-2-{[(2S)-1-methylpyrrolidin-2-yl]methoxy}-5-(trifluoromethyl)benzamide], the Ki came to 289 nM on human CB2 receptors (setting [2]) and 15 nM on rat CB2 receptors.

Turning to `CC(C)(C)OC(=O)NNc1ccc(C(F)(F)F)cc1C(=O)/N=c1\sc(C(C)(C)C)cn1C[C@H]1CCCO1` [Example 40, tert-butyl 2-[2-({[(2Z)-5-tert-butyl-3-[(2R)-tetrahydrofuran-2-ylmethyl]-1,3-thiazol-2(3H)-ylidene]amino}carbonyl)-4-(trifluoromethyl)phenyl]hydrazinecarboxylate], the Ki was found to be 0.4 nM at human CB2 receptors and 0.3 nM on rat CB2 receptors.

On to `CC(C)(C)c1cn(C[C@H]2CCCO2)/c(=N/C(=O)c2cc(C(F)(F)F)ccc2ON=C2CCCC2)s1` [Example 83, N-[(2Z)-5-tert-butyl-3-(2R)-(tetrahydrofuran-2-ylmethyl)-1,3-thiazol-2(3H)-ylidene]-2-[(cyclopentylideneamino)oxy]-5-(trifluoromethyl)benzamide], for which the Ki at human CB2 receptors came out at 0.5 nM; on rat CB2 receptors, 1.2 nM.

For the compound `CC(C)NOc1ccc(C(F)(F)F)cc1C(=O)/N=c1\sc(C(C)(C)C)cn1C[C@H]1CCCO1` [Example 79, N-[(2Z)-5-tert-butyl-3-[(2R)-tetrahydrofuran-2-ylmethyl]-1,3-thiazol-2(3H)-ylidene]-2-[(isopropylamino)oxy]-5-(trifluoromethyl)benzamide], the Ki on human CB2 receptors (setting [2]) was found to be 0.3 nM; at rat CB2 receptors, 0.5 nM.

On to `CC(=O)C(C)=NOc1ccc(C(F)(F)F)cc1C(=O)/N=c1\sc(C(C)(C)C)cn1C[C@H]1CCCO1` [Example 84, N-[(2Z)-5-tert-butyl-3-[(2R)-tetrahydrofuran-2-ylmethyl]-1,3-thiazol-2(3H)-ylidene]-2-({[1-methyl-2-oxopropylidene]amino}oxy)-5-(trifluoromethyl)benzamide], for which the inhibitory constant (Ki) on human CB2 receptors (setting [2]) came to 3.3 nM; on rat CB2 receptors, 2.4 nM.

For `CC(C)(C)C(=O)COc1ccc(C(F)(F)F)cc1C(=O)/N=c1\sc(C(C)(C)C)cn1C[C@H]1CCCO1` [Example 72, N-[(2Z)-5-tert-butyl-3-[(2R)-tetrahydrofuran-2-ylmethyl]-1,3-thiazol-2(3H)-ylidene]-2-(3,3-dimethyl-2-oxobutoxy)-5-(trifluoromethyl)benzamide], the EC50 in experiment [1] is over 27000 nM. In addition, the results for the Ki at human CB2 receptors (setting [2]) and at rat CB2 receptors were 0.9 nM and 0.3 nM, respectively.

With `COCCn1cc(C(C)(C)C)s/c1=N\C(=O)c1cc(C(F)(F)F)ccc1ONC(C)(C)C` [Example 76, 2-[(tert-butylamino)oxy]-N-[(2Z)-5-tert-butyl-3-(2-methoxyethyl)-1,3-thiazol-2(3H)-ylidene]-5-(trifluoromethyl)benzamide], the Ki worked out at 20 nM at human CB2 receptors and 5.2 nM on rat CB2 receptors.

For the compound `CC(=O)NOc1ccc(C(F)(F)F)cc1C(=O)/N=c1\sc(C(C)(C)C)cn1C[C@H]1CCCO1` [Example 75, 2-[(acetylamino)oxy]-N-[(2Z)-5-tert-butyl-3-[(2R)-tetrahydrofuran-2-ylmethyl]-1,3-thiazol-2(3H)-ylidene]-5-(trifluoromethyl)benzamide], the values for the Ki on human CB2 receptors (setting [2]) and at rat CB2 receptors were 1.2 nM and 2.5 nM, respectively.

As to `CC(CN1CCC[C@H]1COc1ccc(C(F)(F)F)cc1C(=O)/N=c1\sc(C(C)(C)C)cn1C[C@H]1CCCO1)=NO` [Example 77, N-[(2Z)-5-tert-butyl-3-[(2R)-tetrahydrofuran-2-ylmethyl]-1,3-thiazol-2(3H)-ylidene]-2-({(2S)-1-[2-(hydroxyimino)propyl]pyrrolidin-2-yl}methoxy)-5-(trifluoromethyl)benzamide], the Ki is 85 nM on human CB2 receptors (setting [2]) and 64 nM at rat CB2 receptors.

In the case of `CC(COc1ccc(C(F)(F)F)cc1C(=O)/N=c1\sc(C(C)(C)C)cn1C[C@H]1CCCO1)=NOC(C)(C)C` [Example 82], the Ki at human CB2 receptors (setting [2]) was 4.9 nM; on rat CB2 receptors it was 1.7 nM.

As to `C[C@@H](O)COc1ccc(C(F)(F)F)cc1C(=O)/N=c1\sc(C(C)(C)C)cn1C[C@H]1CCCO1` [Example 81, N-[(2Z)-5-tert-butyl-3-[(2R)-tetrahydrofuran-2-ylmethyl]-1,3-thiazol-2(3H)-ylidene]-2-{[(2R)-2-hydroxypropyl]oxy}-5-(trifluoromethyl)benzamide], the inhibition constant (Ki) on human CB2 receptors (setting [2]) was 1.1 nM; at rat CB2 receptors, 0.5 nM.

For the compound `CC(C)(C)c1cn(C[C@H]2CCCO2)/c(=N/C(=O)c2cc(C(F)(F)F)ccc2OCC(C)(C)n2cccc2)s1` [Example 74, N-[(2Z)-5-tert-butyl-3-[(2R)-tetrahydrofuran-2-ylmethyl]-1,3-thiazol-2(3H)-ylidene]-2-[2-methyl-2-(1H-pyrrol-1-yl)propoxy]-5-(trifluoromethyl)benzamide], the Ki stood at 34 nM at human CB2 receptors (setting [2]) and 6.6 nM at rat CB2 receptors.

For the compound `CC(=O)N1CCC[C@H]1COc1ccc(C(F)(F)F)cc1C(=O)/N=c1\sc(C(C)(C)C)cn1C[C@H]1CCCO1` [Example 47, 2-{[(2S)-1-acetylpyrrolidin-2-yl]methoxy}-N-[(2Z)-5-tert-but 1-3[(2R)-tetrahydrofuran-2-ylmethyl]-1,3-thiazol-2(3H)-ylidene]-5-(trifluoromethyl)benzamide], the Ki was found to be 107 nM at human CB2 receptors (setting [2]) and 24 nM at rat CB2 receptors.
